Test results taken from paper PMC9927415, “Tyrosine Kinase Inhibitors Display Potent Activity against Cryptosporidium parvum” (Microbiology Spectrum, 2022).

Columns and labels:
Experiment in all cases: KINOMEscan competitive binding, whole panel
panel of 203 kinases [1] = biological target: T1, panel of 203 kinases (Homo sapiens, UniProt O43293); conditions: 10 µM, n=1; kinase DAPK3; read-out: Percent inhibition DAPK3
T1 construct: purchased DiscoverX (KINOMEscan)
Procedure, shortened: (§1)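 T7 phage-fused kinases; compound displaces immobilized ATP-site probe ligand; bead-bound kinase quantified; % inhibition reported.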

panel of 203 kinases [2] = biological target: T2, panel of 203 kinases (Homo sapiens, UniProt O95819); conditions: 10 µM, n=1; kinase MAP4K4; read-out: Percent inhibition MAP4K4
T2 construct: purchased DiscoverX (KINOMEscan)
T2 sequence (O95819 whole entry): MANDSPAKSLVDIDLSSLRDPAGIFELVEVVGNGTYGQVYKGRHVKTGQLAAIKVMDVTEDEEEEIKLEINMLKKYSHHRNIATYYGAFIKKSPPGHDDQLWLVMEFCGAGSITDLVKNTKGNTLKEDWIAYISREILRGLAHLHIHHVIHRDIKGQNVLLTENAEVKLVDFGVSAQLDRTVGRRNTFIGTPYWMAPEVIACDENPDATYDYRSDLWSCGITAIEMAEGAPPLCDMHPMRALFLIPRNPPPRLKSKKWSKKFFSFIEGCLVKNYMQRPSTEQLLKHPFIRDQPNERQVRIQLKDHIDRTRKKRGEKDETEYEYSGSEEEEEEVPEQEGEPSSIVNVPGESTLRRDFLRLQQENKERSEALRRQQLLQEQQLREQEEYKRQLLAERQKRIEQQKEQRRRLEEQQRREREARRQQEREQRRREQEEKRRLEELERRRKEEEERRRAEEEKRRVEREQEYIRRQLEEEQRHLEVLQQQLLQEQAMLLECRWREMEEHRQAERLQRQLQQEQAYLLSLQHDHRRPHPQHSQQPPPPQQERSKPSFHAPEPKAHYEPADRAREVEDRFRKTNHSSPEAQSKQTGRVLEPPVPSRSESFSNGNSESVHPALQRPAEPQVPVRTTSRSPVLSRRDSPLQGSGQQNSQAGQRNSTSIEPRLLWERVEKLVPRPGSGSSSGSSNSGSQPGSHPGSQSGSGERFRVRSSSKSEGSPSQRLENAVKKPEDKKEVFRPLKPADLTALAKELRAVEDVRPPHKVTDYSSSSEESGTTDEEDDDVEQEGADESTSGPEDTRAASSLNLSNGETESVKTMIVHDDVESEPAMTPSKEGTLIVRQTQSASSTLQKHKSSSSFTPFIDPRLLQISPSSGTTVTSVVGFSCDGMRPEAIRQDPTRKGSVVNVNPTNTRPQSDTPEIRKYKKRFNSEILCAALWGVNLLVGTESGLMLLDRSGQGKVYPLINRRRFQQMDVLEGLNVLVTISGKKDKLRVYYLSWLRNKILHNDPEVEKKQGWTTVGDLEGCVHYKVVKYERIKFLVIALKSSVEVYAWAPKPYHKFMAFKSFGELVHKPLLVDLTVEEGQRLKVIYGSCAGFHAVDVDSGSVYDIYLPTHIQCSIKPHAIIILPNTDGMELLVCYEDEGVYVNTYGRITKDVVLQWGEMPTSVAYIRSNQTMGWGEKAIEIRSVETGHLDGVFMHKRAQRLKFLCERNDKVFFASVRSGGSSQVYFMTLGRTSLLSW
Procedure, shortened: as §1

panel of 203 kinases [3] = biological target: T3, panel of 203 kinases (Homo sapiens, UniProt P15056); conditions: 10 µM, n=1; kinase BRAF; read-out: Percent inhibition BRAF
T3 construct: purchased DiscoverX (KINOMEscan)
T3 sequence (P15056 whole entry): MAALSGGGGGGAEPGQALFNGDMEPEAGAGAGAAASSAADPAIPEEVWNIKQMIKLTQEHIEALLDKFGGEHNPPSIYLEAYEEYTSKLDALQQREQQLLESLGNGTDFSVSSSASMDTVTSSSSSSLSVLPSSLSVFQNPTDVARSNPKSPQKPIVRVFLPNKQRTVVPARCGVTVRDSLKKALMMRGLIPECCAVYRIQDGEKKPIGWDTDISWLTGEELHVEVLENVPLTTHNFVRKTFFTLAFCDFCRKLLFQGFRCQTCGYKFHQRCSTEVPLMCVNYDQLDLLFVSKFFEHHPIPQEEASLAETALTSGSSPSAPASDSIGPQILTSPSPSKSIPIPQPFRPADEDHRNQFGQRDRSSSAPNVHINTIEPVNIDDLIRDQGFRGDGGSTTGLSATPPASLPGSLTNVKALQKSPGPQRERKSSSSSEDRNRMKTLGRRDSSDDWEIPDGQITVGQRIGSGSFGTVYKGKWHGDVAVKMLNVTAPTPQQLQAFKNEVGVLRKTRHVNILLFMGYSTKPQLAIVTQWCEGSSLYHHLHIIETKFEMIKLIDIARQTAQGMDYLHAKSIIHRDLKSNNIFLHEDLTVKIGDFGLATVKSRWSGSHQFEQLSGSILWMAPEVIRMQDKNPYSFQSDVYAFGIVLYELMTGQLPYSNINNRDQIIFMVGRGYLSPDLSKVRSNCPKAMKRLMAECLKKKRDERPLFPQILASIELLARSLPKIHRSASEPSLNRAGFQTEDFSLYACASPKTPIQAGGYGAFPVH
Procedure, shortened: as §1

panel of 203 kinases [4] = biological target: T4, panel of 203 kinases (Homo sapiens, UniProt P41240); conditions: 10 µM, n=1; kinase CSK; read-out: Percent inhibition CSK
T4 construct: purchased DiscoverX (KINOMEscan)
T4 sequence (P41240 whole entry): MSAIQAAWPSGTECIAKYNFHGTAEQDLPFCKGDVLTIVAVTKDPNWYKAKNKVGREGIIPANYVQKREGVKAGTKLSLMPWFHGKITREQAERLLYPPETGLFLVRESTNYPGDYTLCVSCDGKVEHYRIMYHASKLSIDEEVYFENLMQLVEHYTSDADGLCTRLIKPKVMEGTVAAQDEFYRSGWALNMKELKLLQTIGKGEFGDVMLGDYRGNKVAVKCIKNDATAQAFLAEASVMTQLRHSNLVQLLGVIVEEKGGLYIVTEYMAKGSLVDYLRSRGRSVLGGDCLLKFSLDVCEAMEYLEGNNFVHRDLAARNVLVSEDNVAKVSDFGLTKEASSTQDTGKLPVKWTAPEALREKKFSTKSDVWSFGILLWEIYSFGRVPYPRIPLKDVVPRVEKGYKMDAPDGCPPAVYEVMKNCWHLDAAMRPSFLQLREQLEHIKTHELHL
Procedure, shortened: as §1

panel of 203 kinases [5] = biological target: T5, panel of 203 kinases (Homo sapiens, UniProt P51955); conditions: 10 µM, n=1; kinase NEK2; read-out: Percent inhibition NEK2
T5 construct: purchased DiscoverX (KINOMEscan)
T5 sequence (P51955 1-445): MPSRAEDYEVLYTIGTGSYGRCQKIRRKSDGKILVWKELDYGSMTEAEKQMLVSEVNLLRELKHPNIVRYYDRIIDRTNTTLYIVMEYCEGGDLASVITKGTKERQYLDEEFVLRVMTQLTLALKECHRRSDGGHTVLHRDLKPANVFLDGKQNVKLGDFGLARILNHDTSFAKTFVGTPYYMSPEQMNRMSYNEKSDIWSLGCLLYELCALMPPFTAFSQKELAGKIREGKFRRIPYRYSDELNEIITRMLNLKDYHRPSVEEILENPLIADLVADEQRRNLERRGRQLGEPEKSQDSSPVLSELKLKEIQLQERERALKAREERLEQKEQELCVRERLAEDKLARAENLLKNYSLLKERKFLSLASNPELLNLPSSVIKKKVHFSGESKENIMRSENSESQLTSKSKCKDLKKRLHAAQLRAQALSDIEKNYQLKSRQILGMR
Procedure, shortened: as §1

panel of 203 kinases [6] = biological target: T6, panel of 203 kinases (Homo sapiens, UniProt P54760); conditions: 10 µM, n=1; kinase EPHB4; read-out: Percent inhibition EPHB4
T6 construct: purchased DiscoverX (KINOMEscan)
T6 sequence (P54760 16-987): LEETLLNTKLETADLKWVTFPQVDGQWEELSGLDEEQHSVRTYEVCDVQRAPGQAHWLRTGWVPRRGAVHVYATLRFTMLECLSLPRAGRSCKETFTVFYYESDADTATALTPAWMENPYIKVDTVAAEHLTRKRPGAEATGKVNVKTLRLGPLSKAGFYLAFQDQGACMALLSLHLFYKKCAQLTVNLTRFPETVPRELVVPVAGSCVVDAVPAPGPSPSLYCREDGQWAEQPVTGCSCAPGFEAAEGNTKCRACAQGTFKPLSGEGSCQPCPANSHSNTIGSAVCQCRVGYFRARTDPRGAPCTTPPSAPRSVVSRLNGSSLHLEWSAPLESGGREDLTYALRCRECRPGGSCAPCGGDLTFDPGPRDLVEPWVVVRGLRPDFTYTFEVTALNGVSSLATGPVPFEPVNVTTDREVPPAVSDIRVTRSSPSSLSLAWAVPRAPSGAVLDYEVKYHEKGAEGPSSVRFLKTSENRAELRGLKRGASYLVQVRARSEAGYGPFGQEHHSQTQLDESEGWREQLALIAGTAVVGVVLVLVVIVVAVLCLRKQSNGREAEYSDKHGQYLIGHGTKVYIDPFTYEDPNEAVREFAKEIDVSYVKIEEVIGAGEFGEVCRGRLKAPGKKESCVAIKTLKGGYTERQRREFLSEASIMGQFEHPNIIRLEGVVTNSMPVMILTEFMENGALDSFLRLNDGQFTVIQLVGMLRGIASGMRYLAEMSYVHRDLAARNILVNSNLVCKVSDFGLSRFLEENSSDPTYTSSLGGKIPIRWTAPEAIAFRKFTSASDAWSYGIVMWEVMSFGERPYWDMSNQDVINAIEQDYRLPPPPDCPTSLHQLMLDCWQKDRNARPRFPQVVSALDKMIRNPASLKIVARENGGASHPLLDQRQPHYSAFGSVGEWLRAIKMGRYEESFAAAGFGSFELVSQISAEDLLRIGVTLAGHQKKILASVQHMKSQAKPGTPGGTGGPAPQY
Procedure, shortened: as §1

panel of 203 kinases [7] = biological target: T7, panel of 203 kinases (Homo sapiens, UniProt Q13705); conditions: 10 µM, n=1; kinase ACVR2B; read-out: Percent inhibition ACVR2B
T7 construct: purchased DiscoverX (KINOMEscan)
T7 sequence (Q13705 19-512): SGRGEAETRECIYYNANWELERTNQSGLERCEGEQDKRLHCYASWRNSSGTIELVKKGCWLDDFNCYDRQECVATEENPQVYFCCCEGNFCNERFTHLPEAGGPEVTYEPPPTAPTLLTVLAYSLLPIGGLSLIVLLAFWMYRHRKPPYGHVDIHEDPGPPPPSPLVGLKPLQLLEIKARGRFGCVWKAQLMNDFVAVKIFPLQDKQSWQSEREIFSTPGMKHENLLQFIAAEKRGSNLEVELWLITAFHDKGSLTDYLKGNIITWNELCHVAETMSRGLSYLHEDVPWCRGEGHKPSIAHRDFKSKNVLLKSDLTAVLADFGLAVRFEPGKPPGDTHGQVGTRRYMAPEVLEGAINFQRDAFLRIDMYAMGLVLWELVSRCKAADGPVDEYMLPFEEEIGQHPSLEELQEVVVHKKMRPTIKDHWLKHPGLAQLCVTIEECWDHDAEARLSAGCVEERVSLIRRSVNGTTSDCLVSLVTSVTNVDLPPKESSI
Procedure, shortened: as §1

panel of 203 kinases [8] = biological target: T8, panel of 203 kinases (Homo sapiens, UniProt Q96GD4); conditions: 10 µM, n=1; kinase AURKB; read-out: Percent inhibition AURKB
T8 construct: purchased DiscoverX (KINOMEscan)
T8 sequence (Q96GD4 whole entry): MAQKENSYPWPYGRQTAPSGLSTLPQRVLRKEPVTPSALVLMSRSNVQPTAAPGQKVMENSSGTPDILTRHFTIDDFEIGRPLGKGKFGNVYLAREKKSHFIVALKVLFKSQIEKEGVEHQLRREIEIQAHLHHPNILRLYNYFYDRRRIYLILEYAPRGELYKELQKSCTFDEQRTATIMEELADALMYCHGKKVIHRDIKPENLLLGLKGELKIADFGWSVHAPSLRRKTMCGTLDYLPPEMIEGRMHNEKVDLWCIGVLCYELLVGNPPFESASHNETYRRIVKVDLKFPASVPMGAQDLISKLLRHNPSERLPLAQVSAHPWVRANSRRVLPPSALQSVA
Procedure, shortened: as §1

panel of 203 kinases [9] = biological target: T9, panel of 203 kinases (Homo sapiens, UniProt Q9UEE5); conditions: 10 µM, n=1; kinase DRAK1; read-out: Percent inhibition DRAK1
T9 construct: purchased DiscoverX (KINOMEscan)
T9 sequence (Q9UEE5 1-414): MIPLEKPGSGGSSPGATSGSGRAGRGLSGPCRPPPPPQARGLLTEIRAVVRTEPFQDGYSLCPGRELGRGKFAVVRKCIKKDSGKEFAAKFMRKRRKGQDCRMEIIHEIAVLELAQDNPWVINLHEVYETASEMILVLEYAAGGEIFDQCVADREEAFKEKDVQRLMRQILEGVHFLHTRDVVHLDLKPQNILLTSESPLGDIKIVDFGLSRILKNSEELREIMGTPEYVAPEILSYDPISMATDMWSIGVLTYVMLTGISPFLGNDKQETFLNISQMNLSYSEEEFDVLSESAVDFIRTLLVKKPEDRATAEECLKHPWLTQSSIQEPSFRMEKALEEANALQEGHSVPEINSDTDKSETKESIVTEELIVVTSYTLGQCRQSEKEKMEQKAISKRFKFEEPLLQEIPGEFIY
Procedure, shortened: as §1

panel of 203 kinases [10] = biological target: T10, panel of 203 kinases (Homo sapiens, UniProt Q9Y6R4); conditions: 10 µM, n=1; kinase MAP3K4; read-out: Percent inhibition MAP3K4
T10 construct: purchased DiscoverX (KINOMEscan)
Procedure, shortened: as §1

T1 sequence (O43293 whole entry): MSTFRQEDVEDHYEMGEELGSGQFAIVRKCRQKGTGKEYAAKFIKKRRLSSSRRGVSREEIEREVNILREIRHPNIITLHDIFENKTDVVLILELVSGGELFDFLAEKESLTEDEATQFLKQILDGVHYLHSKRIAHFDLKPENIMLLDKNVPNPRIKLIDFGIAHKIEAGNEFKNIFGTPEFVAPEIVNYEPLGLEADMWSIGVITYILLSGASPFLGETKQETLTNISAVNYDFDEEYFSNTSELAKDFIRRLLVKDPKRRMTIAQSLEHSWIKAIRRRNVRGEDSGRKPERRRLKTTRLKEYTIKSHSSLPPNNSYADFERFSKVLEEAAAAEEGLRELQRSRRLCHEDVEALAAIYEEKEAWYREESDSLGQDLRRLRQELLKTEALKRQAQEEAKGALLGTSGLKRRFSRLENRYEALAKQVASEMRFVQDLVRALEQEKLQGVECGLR

Compound | inhibition at 10 µM (panel of 203 kinases [1]) | inhibition at 10 µM (panel of 203 kinases [2]) | inhibition at 10 µM (panel of 203 kinases [3]) | inhibition at 10 µM (panel of 203 kinases [4]) | inhibition at 10 µM (panel of 203 kinases [5]) | inhibition at 10 µM (panel of 203 kinases [6]) | inhibition at 10 µM (panel of 203 kinases [7]) | inhibition at 10 µM (panel of 203 kinases [8]) | inhibition at 10 µM (panel of 203 kinases [9]) | inhibition at 10 µM (panel of 203 kinases [10])
CN1CCN(c2ccc(Nc3nccc(-c4cnn5ncccc45)n3)cc2C#N)CC1 [Compound 1] | 98.5% | 80% | 0% | 83% | 98.5% | 0% | 0% | 88.5% | 100% | 91%
COc1ccc(Nc2nccc(-c3cnn4ncccc34)n2)cc1 [Compound 2] | 0% | 0% | 99.6% | 0% | 99.9% | 0% | 80.3% | 93.3% | 98.4% | 0%
Cc1ccc(O)cc1Nc1ccnc(Nc2cccc(C(N)=O)c2)n1 [Compound 3] | 0% | 98.2% | 0% | 100% | 0% | 100% | 100% | 82.8% | 0% | 0%
Cc1ccc(O)cc1N(C)c1ccnc(Nc2cccc(S(N)(=O)=O)c2)n1 [Compound 4] | 0% | 98% | 0% | 100% | 0% | 100% | 100% | 79.5% | 0% | 0%
Fc1cccc(COc2ccc(Nc3ncnc4c3CN(CCN3CCOCC3)CC4)cc2Cl)c1 [Compound 6] | 0% | 0% | 0% | 0% | 0% | 0% | 0% | 0% | 0% | 0%
COc1cc(Nc2nccc(-c3sc(N)nc3-c3cccc(NC(=O)c4c(F)cccc4F)c3)n2)cc(OC)c1OC [Compound 7] | 0% | 99.3% | 100% | 100% | 100% | 91.9% | 97.5% | 100% | 0% | 99.6%
C[C@@H](Oc1cc(-c2cnc3ccccn23)sc1C(N)=O)c1ccccc1Cl [Compound 8] | 89.3% | 0% | 0% | 0% | 99.4% | 0% | 0% | 87.3% | 86.1% | 0%
c1ccc(COc2cccc(-c3ccnc4[nH]ccc34)c2)cc1 [Compound 9] | 0% | 0% | 0% | 0% | 0% | 0% | 0% | 0% | 0% | 0%
Clc1ccc(Nc2ncc(-c3ccccc3)s2)cc1 [Compound 10] | 0% | 0% | 0% | 0% | 0% | 0% | 0% | 0% | 0% | 0%
Nc1ncc2c(-c3ccncc3)c[nH]c2n1 [Compound 11] | 0% | 84.2% | 0% | 0% | 0% | 0% | 65.7% | 65.6% | 92.8% | 0%
